This note sets out measurements from US20250145642A1, “BICYCLIC HETEROARENES AND METHODS OF THEIR USE” (Kineta, Inc., priority 2021, published 2025).

The target of this assay is full-length human PIKFYVE (N-terminal GST-fusion) (Homo sapiens (Human), UniProt Q9Y2I7, L932S/Q1183K/Q995L/S1033A/S696N/T998S). The experiment in a line: PIKfyve biochemical assay (ADP-Glo Kinase assay, Carna Biosciences). Conditions: ADP-Glo, full-length human GST-PIKFYVE, 10 μM to 3 nM; read-out: hPIKfyve IC50.
Sequence of full-length human PIKFYVE (N-terminal GST-fusion) (Q9Y2I7 whole entry S696N/L932S/Q995L/T998S/S1033A/Q1183K, the tested form may be a part): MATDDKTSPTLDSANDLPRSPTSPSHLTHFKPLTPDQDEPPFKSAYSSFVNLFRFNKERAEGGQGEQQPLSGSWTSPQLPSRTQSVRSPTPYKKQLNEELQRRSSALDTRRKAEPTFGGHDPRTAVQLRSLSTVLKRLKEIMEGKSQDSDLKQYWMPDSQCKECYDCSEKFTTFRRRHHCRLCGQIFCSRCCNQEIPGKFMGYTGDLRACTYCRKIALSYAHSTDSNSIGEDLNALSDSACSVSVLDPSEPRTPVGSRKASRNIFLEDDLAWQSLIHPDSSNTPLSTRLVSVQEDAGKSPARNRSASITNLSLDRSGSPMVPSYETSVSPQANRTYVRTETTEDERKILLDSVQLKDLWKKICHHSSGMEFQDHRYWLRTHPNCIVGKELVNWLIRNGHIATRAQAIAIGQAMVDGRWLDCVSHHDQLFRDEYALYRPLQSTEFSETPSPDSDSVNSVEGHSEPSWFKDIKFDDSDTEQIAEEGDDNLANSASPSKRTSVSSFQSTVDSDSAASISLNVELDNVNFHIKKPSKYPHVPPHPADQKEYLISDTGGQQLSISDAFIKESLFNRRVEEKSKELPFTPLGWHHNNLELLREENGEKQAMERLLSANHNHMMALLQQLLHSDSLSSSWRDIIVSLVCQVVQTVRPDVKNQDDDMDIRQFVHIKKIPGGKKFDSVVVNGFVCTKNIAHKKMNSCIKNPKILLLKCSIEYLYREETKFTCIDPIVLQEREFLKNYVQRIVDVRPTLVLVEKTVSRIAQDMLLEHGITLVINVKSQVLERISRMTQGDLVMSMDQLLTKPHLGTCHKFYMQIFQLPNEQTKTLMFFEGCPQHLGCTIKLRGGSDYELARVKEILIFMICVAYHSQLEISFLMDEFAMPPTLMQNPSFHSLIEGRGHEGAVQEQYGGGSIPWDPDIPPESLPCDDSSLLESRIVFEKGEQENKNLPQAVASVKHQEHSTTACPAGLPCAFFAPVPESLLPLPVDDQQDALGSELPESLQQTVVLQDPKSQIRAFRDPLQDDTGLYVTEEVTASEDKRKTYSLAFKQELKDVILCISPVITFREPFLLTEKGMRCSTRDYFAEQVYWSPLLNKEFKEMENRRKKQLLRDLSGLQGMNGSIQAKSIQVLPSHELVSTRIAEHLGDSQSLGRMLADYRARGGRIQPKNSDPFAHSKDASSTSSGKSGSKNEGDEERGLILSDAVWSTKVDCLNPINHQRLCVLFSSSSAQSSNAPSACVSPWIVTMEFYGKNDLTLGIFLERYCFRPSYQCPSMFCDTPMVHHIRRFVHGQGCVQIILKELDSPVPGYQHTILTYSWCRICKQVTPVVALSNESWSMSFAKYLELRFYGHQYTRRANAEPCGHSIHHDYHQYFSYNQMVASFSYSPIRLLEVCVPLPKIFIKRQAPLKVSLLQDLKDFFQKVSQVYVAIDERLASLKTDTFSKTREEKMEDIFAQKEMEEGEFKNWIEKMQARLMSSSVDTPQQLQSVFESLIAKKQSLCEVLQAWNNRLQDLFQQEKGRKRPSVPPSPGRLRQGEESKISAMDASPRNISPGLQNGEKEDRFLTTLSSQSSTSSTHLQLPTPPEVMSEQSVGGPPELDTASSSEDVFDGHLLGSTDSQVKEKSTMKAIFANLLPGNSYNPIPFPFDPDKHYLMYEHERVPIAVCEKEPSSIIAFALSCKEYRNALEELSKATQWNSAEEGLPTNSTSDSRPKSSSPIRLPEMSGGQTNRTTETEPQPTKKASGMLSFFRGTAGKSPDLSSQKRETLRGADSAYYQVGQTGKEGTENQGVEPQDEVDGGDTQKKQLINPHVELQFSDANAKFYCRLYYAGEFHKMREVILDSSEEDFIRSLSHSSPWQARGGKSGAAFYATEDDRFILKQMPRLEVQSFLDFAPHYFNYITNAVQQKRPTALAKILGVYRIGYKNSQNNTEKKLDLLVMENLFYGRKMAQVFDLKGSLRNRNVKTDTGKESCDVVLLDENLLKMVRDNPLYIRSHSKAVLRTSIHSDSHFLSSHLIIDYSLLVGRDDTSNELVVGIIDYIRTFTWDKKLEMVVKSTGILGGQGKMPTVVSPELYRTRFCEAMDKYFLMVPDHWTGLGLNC
Description: (§1) PIKfyve Biochemical Assay. The biochemical PIKfyve inhibition assays were run by Carna Biosciences according to proprietary methodology based on the Promega ADP-Glo™ Kinase assay. A full-length human PIKFYVE [1-2098(end) amino acids and S696N, L932S, Q995L, T998S, S1033A and Q1183K of the protein having the sequence set forth in NCBI Reference Sequence No. NP_055855.2] was expressed as N-terminal GST-fusion protein (265 kDa) using baculovirus expression system. GST-PIKFYVE was purified by using glutathione sepharose chromatography and used in an ADP-Glo™ Kinase assay (Promega). Reactions were set up by adding the test compound solution, substrate solution, ATP solution and kinase solution, each at 4× final concentrations. Reactions were prepared with assay buffer (50 mM MOPS, 1 mM DTT, pH7.2), mixed, and incubated in black 384 well polystyrene plates for 1 hour at room temperature. ADP-Glo™ reagent was then added for 40 minutes, followed by kinase detection reagent for an additional 40 minutes. The kinase activity was evaluated by detecting relative light units on a luminescence plate reader. Samples were run in duplicate from 10 μM to 3 nM. […] IC50 values were calculated from concentration vs % inhibition curves by fitting to a four-parameter logistic curve.
as §1, with “The” for “PIKfyve Biochemical Assay. The”, “accession number” for “the protein having the sequence set forth in NCBI Reference Sequence No.”, “curve. […]” for “curve.”
Consider `c1cc(-c2nc(N3CCOCC3)nc3c(-c4cnn(C5CC5)c4)c[nH]c23)ccn1` [Compound 140, 4-(7-(1-cyclopropyl-1H-pyrazol-4-yl)-4-(pyridin-4-yl)-5H-pyrrolo[3,2-d]pyrimidin-2-yl)morpholine], for which the IC50 lay within 10 to 100 nM.

As for `c1cncc(N2CCc3c(OCCC4CCCO4)nc(N4CCOCC4)nc32)c1` (stereo not shown) [Compound 31, 4-(7-(pyridin-3-yl)-4-(2-(tetrahydrofuran-2-yl)ethoxy)-6,7-dihydro-5H-pyrrolo[2,3-d]pyrimidin-2-yl)morpholine], the IC50 was in the range of 10 to 100 nM.

As to `c1cncc(N2CCc3c(OCC4CNC4)nc(N4CCOCC4)nc32)c1` [Compound 38, 4-(4-(azetidin-3-ylmethoxy)-7-(pyridin-3-yl)-6,7-dihydro-5H-pyrrolo[2,3-d]pyrimidin-2-yl)morpholine], the IC50 lay in the range of 100 to 1000 nM.

In the case of `CN1CCC(c2nc(N3CCOCC3)nc3c2ncn3-c2ccccc2)C1` (stereo not shown) [Compound 126, 4-(6-(1-methylpyrrolidin-3-yl)-9-phenyl-9H-purin-2-yl)morpholine], the IC50 is 1000 to 10000 nM.

Consider `CC(C)(C)OC(=O)N1CC(COc2nc(N3CCOCC3)nc3c2CCN3c2cccnc2)C1` [Compound 37, tert-butyl 3-(((2-morpholino-7-(pyridin-3-yl)-6,7-dihydro-5H-pyrrolo[2,3-d]pyrimidin-4-yl)oxy)methyl)azetidine-1-carboxylate], for which the half-maximal inhibitory concentration (IC50) fell in the range of 100 to 1000 nM.

Consider `c1ccc(N2CCc3c(-c4ccnnc4)nc(N4CCOCC4)nc32)cc1` [Compound 99, 4-(7-phenyl-4-(pyridazin-4-yl)-6,7-dihydro-5H-pyrrolo[2,3-d]pyrimidin-2-yl)morpholine], for which the IC50 was in the range of 10 to 100 nM.

Consider `COc1nc(N2CCOCC2)nc2c1CCN2c1ccccc1` [Compound 48, 4-(4-methoxy-7-phenyl-6,7-dihydro-5H-pyrrolo[2,3-d]pyrimidin-2-yl)morpholine], for which the IC50 lay in the range of 10 to 100 nM.

For the compound `CN1CCCC(CCOc2nc(N3CCOCC3)nc3c2CCN3c2cccnc2)C1` (stereo not shown) [Compound 11, 4-(4-(2-(1-methylpiperidin-3-yl)ethoxy)-7-(pyridin-3-yl)-6,7-dihydro-5H-pyrrolo[2,3-d]pyrimidin-2-yl)morpholine], the IC50 is 10 to 100 nM.

On to `c1cncc(N2CCc3c(C4CCOC4)nc(N4CCOCC4)nc32)c1` (stereo not shown) [Compound 89, 4-(7-(pyridin-3-yl)-4-(tetrahydrofuran-3-yl)-6,7-dihydro-6H-pyrrolo[2,3-d]pyrimidin-2-yl)morpholine], for which the IC50 was in the range of 100 to 1000 nM.

`CN1CC(c2nc(N3CCOCC3)nc3c2CCN3c2ccccc2)C1` [Compound 117, 4-(4-(1-methylazetidin-3-yl)-7-phenyl-6,7-dihydro-5H-pyrrolo[2,3-d]pyrimidin-2-yl)morpholine]: the IC50 is 100 to 1000 nM.

Regarding `O=C(c1ccccc1)N1CCc2c(Oc3cccnc3)nc(N3CCOCC3)nc21` [Compound 72, (2-morpholino-4-(pyridin-3-yloxy)-6H-pyrrolo[2,3-d]pyrimidin-7(6H)-yl)(phenyl)methanone], the IC50 is 1000 to 10000 nM.

Regarding `Cc1cccc(/C=N/Nc2nc(N3CCOCC3)nc3c2CCN3c2cccnc2)c1` [Compound 82, (E)-4-(4-(2-(3-methylbenzylidene)hydrazineyl)-7-(pyridin-3-yl)-6,7-dihydro-6H-pyrrolo[2,3-d]pyrimidin-2-yl)morpholine], the IC50 was under 10 nM.

For `CN1CCC(N2CCc3c(OCc4cccnc4)nc(N4CCOCC4)nc32)CC1` [Compound 42, 4-(7-(1-methylpiperidin-4-yl)-4-(pyridin-3-ylmethoxy)-6,7-dihydro-5H-pyrrolo[2,3-d]pyrimidin-2-yl)morpholine], the IC50 was over 10000 nM.

For the compound `CN1CCCC(COc2nc(N3CCOCC3)nc3c2CCN3CC(C)(C)O)C1` (stereo not shown) [Compound 40, 2-methyl-1-(4-((1-methylpiperidin-3-yl)methoxy)-2-morpholino-6H-pyrrolo[2,3-d]pyrimidin-7(6H)-yl)propan-2-ol], the IC50 is over 10000 nM.

On to `c1ccc(N2CCc3c(OCc4cncnc4)nc(N4CCOCC4)nc32)cc1` [Compound 14, 4-(7-phenyl-4-(pyrimidin-5-ylmethoxy)-6,7-dihydro-5H-pyrrolo[2,3-d]pyrimidin-2-yl)morpholine], for which the IC50 lay in the range of 10 to 100 nM.

As for `c1ccc(Oc2nc(N3CCOCC3)nc3c2CCN3c2cccnc2)nc1` [Compound 58], the concentration for half-maximal inhibition (IC50) lay within 100 to 1000 nM.

With `c1cncc(N2CCc3c(-c4ccncc4)nc(N4CCOCC4)nc32)c1` [Compound 105, 4-(7-(pyridin-3-yl)-4-(pyridin-4-yl)-6,7-dihydro-5H-pyrrolo[2,3-d]pyrimidin-2-yl)morpholine], the IC50 was in the range of 10 to 100 nM.

Consider `c1ccc(N2CCc3c(-c4cnco4)nc(N4CCOCC4)nc32)cc1` [Compound 101, 4-(4-(oxazol-5-yl)-7-phenyl-6,7-dihydro-5H-pyrrolo[2,3-d]pyrimidin-2-yl)morpholine], for which the half-inhibitory concentration (IC50) was in the range of 10 to 100 nM.

With `CC(C)(C)OC(=O)N1CCC(c2nc(N3CCOCC3)nc3c2CCN3c2cccnc2)CC1` [Compound 107, tert-butyl 4-(2-morpholino-7-(pyridin-3-yl)-6,7-dihydro-5H-pyrrolo[2,3-d]pyrimidin-4-yl)piperidine-1-carboxylate], the IC50 was 100 to 1000 nM.

Take `c1ccc(-c2cncc(Oc3nc(N4CCOCC4)nc4c3CCN4c3cccnc3)c2)cc1` [Compound 75, 4-(4-((5-phenylpyridin-3-yl)oxy)-7-(pyridin-3-yl)-6,7-dihydro-5H-pyrrolo[2,3-d]pyrimidin-2-yl)morpholine]: the half-inhibitory concentration (IC50) was 10 to 100 nM.

With `c1cc(-c2nc(N3CCOCC3)nc3c(-c4ccncn4)c[nH]c23)ccn1` [Compound 137, 4-(4-(pyridin-4-yl)-7-(pyrimidin-4-yl)-6H-pyrrolo[3,2-d]pyrimidin-2-yl)morpholine], the IC50 lay within 10 to 100 nM.

Regarding `c1ccc(N2CCc3c(COCc4ccccn4)nc(N4CCOCC4)nc32)cc1` [Compound 62, 4-(7-phenyl-4-((pyridin-2-ylmethoxy)methyl)-6,7-dihydro-5H-pyrrolo[2,3-d]pyrimidin-2-yl)morpholine], the IC50 lay within 10 to 100 nM.

`c1ccc(-c2nccc(-c3nc(N4CCOCC4)nc4c3CCN4c3ccncc3)n2)cc1` [Compound 125, 4-(4-(2-phenylpyrimidin-4-yl)-7-(pyridin-4-yl)-6,7-dihydro-5H-pyrrolo[2,3-d]pyrimidin-2-yl)morpholine]: the IC50 was in the range of 10 to 100 nM.

As for `c1ccc(N2CCc3c(Oc4ccccn4)nc(N4CCOCC4)nc32)cc1` [Compound 49, 4-(7-phenyl-4-(pyridin-2-yloxy)-6,7-dihydro-5H-pyrrolo[2,3-d]pyrimidin-2-yl)morpholine], the IC50 was 10 to 100 nM.

For `CN1CCCC(COc2nc(N3CCOCC3)nc3c2CCN3c2ccccc2)C1` (stereo not shown) [Compound 28, 4-(4-((1-methylpiperidin-3-yl)methoxy)-7-phenyl-6,7-dihydro-5H-pyrrolo[2,3-d]pyrimidin-2-yl)morpholine.formate], the IC50 is 100 to 1000 nM.

Regarding `CN1CCn2ncc(-c3c[nH]c4c(-c5ccncc5)nc(N5CCOCC5)nc34)c2C1` [Compound 146, 4-(7-(5-methyl-4,5,6,7-tetrahydropyrazolo[1,5-a]pyrazin-3-yl)-4-(pyridin-4-yl)-5H-pyrrolo[3,2-d]pyrimidin-2-yl)morpholine], the IC50 lay within 100 to 1000 nM.

For “4-(7-(3-fluorophenyl)-4-(pyridin-3-ylmethoxy)-6,7-dihydro-5H-pyrrolo[2,3-d]pyrimidin-2-yl)morpholine [Compound 3]”, the IC50 is 100 to 1000 nM.

With `c1ccc(N2CCc3c(Nc4cccnc4)nc(N4CCOCC4)nc32)cc1` [Compound 77], the IC50 lay in the range of 10 to 100 nM.

Turning to `c1ccc(N2CCc3c(NC4COC4)nc(N4CCOCC4)nc32)cc1` [Compound 76, 2-morpholino-N-(oxetan-3-yl)-7-phenyl-6,7-dihydro-5H-pyrrolo[2,3-d]pyrimidin-4-amine], the IC50 is over 10000 nM.

On to “4-(4-((oxetan-3-yloxy)methyl)-7-(pyridin-3-yl)-6,7-dihydro-5H-pyrrolo[2,3-d]pyrimidin-2-yl)morpholine [Compound 65]”, for which the IC50 is 1000 to 10000 nM.

`c1cc(-c2nc(N3CCOCC3)nc3c(-c4nccc(C5CC5)n4)c[nH]c23)ccn1` [Compound 138, 4-(7-(4-cyclopropylpyrimidin-2-yl)-4-(pyridin-4-yl)-5H-pyrrolo[3,2-d]pyrimidin-2-yl)morpholine]: the IC50 was 100 to 1000 nM.

The IC50 is the midpoint of a concentration-inhibition curve.
